In US20250032524A1, “BROAD SPECTRUM AMINOGLYCOSIDES AND USES THEREOF” (REVAGENIX, INC., priority 2022, published 2025):
Where two headings read alike, the source gives them in different places.

Tests used:
Assay in all cases: MIC broth microdilution (CLSI)
Assay type in all cases: cell-based
E. coli = details: Escherichia coli
Procedure: (§1) Minimum inhibitory concentrations for representative example compounds herein were determined by a broth microdilution method in accordance with the Clinical and Laboratory Standards Institute (CLSI) guidelines. In brief, organism suspensions were adjusted to a 0.5 McFarland standard to yield a final inoculum between 3×10^5 and 7×10^5 colony-forming units (CFU)/mL. The inoculum was prepared by suspension of a colony from an agar plate that was prepared the previous day. Compound dilutions and inoculum were prepared in sterile, cation adjusted Mueller-Hinton Broth (Beckton Dickinson).
(§2) Bacteria were suspended in sterile saline and added to each assay plate to obtain a final concentration of 5×10^5 CFU/mL. An inoculum volume of 100 μL was added to wells containing 100 μL of broth with 2-fold serial dilutions of the test compound. All inoculated microdilution trays were incubated in ambient air at 35° C. for 18-24 hours. Following incubation, the lowest concentration of the compound that prevented visible growth (OD 600 nm<0.05) is recorded was the MIC. […] Performance of the assay was monitored by the use of laboratory quality-control strains and a standard compound with a defined MIC spectrum (neomycin), in accordance with CLSI guidelines.

P. aeruginosa = details: Pseudomonas aeruginosa
Procedure: as §1, §2

A. baumannii = details: Acinetobacter baumannii
Procedure: as §1, §2

[1] = read-out: Activity (MIC), strain NECO0003, ΔtolC
[2] = read-out: Activity (MIC), strain NECO0245, ArmA
[3] = strain NECO0001, WT QC, read-out: Activity (MIC)
[4] = strain NECO0002, WT, read-out: Activity (MIC)
[5] = strain NECO0243, empty vector, read-out: Activity (MIC)
[6] = strain NECO0244, AAC(6')-Ib, read-out: Activity (MIC)
[7] = strain NECO0289, APH(3')-Ia, read-out: Activity (MIC)
[8] = strain NECO0302, AAC(3)-IIa, read-out: Activity (MIC)
[9] = strain NECO0350, AAC(2')-I, read-out: Activity (MIC)
[10] = strain NECO0359, ANT(4')-Ia, read-out: Activity (MIC)
[11] = read-out: Activity (MIC), strain NPAE0006, Efflux KO, Aph(3')-IIb
[12] = read-out: Activity (MIC), strain NPAE0010, MexXY over-expressed, Aph(3')-IIb
[13] = strain NPAE0001, WT Aph(3')-IIb, QC, read-out: Activity (MIC)
[14] = strain NPAE0002, WT Aph(3')-IIb, read-out: Activity (MIC)
[15] = strain NPAE0359, aph(3')-IIb KO (tetR), read-out: Activity (MIC)
[16] = read-out: Activity (MIC), strain NABA0007, ΔadeJK efflux
[17] = strain NABA0006, WT parent, read-out: Activity (MIC)
[18] = strain NABA0020, AME negative strain, read-out: Activity (MIC)

Measured: MIC

C[C@@H](N)[C@@H]1CC[C@@H](N)[C@@H](O[C@@H]2[C@@H](N)[C@H](O)[C@@H](NC(=O)[C@@H](O)[C@H](F)CN)[C@H](O)[C@H]2O[C@@H]2O[C@H](CO)[C@@H](O[C@H]3O[C@@H](CN)[C@@H](O)[C@H](O)[C@H]3N)[C@H]2O)O1 [Compound 4, (2R,3R)-4-amino-N-((1R,2S,3S,4R,5R,6S)-3-amino-4-(((2R,3R,6S)-3-amino-6-((R)-1-aminoethyl)tetrahydro-2H-pyran-2-yl)oxy)-5-(((2S,3R,4S,5R)-4-(((2R,3R,4R,5S,6S)-3-amino-6-(aminomethyl)-4,5-dihydroxytetrahydro-2H-pyran-2-yl)oxy)-3-hydroxy-5-(hydroxymethyl)tetrahydrofuran-2-yl)oxy)-2,6-dihydroxycyclohexyl)-3-fluoro-2-hydroxybutanamide]
< 16 µg/mL: E. coli; [1] | E. coli; [2] | E. coli; [3] | E. coli; [4] | E. coli; [5] | E. coli; [6] | E. coli; [7] | E. coli; [8] | E. coli; [9] | E. coli; [10] | P. aeruginosa; [11] | P. aeruginosa; [12] | P. aeruginosa; [13] | P. aeruginosa; [14] | P. aeruginosa; [15] | A. baumannii; [16] | A. baumannii; [17] | A. baumannii; [18]

C[C@@H](N)[C@@H]1CC[C@@H](N)[C@@H](O[C@@H]2[C@@H](N)[C@H](O)[C@@H](NC(=O)[C@@H](O)CCN)[C@H](O)[C@H]2O[C@@H]2O[C@H](CO)[C@@H](O[C@H]3O[C@@H](CN)[C@@H](O)[C@H](O)[C@H]3N)[C@H]2O)O1 [Compound 5, (S)-4-Amino-N-((1R,2S,3S,4R,5R,6S)-3-Amino-4-(((2R,3R,6S)-3-Amino-6-((R)-1-Aminoethyl)Tetrahydro-2H-Pyran-2-Yl)Oxy)-5-(((2S,3R,4S,5R)-4-(((2R,3R,4R,5S,6S)-3-Amino-6-(Aminomethyl)-4,5-Dihydroxytetrahydro-2H-Pyran-2-Yl)Oxy)-3-Hydroxy-5-(Hydroxymethyl)Tetrahydrofuran-2-Yl)Oxy)-2,6-Dihydroxycyclohexyl)-2-Hydroxybutanamide]
< 16 µg/mL: E. coli; [1] | E. coli; [2] | E. coli; [3] | E. coli; [4] | E. coli; [5] | E. coli; [6] | E. coli; [7] | E. coli; [8] | E. coli; [9] | E. coli; [10] | P. aeruginosa; [11] | P. aeruginosa; [12] | P. aeruginosa; [13] | P. aeruginosa; [14] | P. aeruginosa; [15] | A. baumannii; [16] | A. baumannii; [17] | A. baumannii; [18]
